Results: PMC9221371, “Flavonoid Derivatives as Potential Cholinesterase Inhibitors in Scopolamine-Induced Amnesic Mice: An In Vitro, In Vivo and Integrated Computational Approach” (Brain Sciences, 2022)

What was measured:
[1] = tested on: scopolamine-induced amnesic mice; experiment: Y-Maze Paradigm, spontaneous alternation in scopolamine-induced amnesic model; type: in vivo, Balb/C mice; details: scopolamine 1 mg/kg i.p., n = 8
Text: For assessment of acute toxicity of the flavones (F1–F5), animals (21 in number) were divided into groups of 3 animals each. The reported protocols by Lorke were followed with slight modification to perform tests in two phases. In the first phase, one (control) group of animals were given Tween-80 (2%), and oral doses of F1–F5 were given to the remaining groups, respectively, at various doses (mg/kg body weight). […] The animals were housed in plastic cages. After two weeks, the animals were sacrificed by euthanasia with isoflurane in a humane manner for assessment of the effects on total weight and weight of the vital organs. The biochemical parameters of blood and histological studies of vital organs (kidney and liver tissue) were also assessed. […] The preliminary pharmacological activity was assessed at various dose concentrations of F1–F5 (2.5–20 mg/kg b.w.) to determine the effective dose for assessment of cognitive function using animal models.
(§1) The animals in the control (normal) and scopolamine amnesic groups were administered vehicle (Tween-80, 2%) only. Treated animals received F1–F5 suspended in Tween-80 (2%) p.o. at their respective doses for a period of 4 weeks. […] For assessing behavioral effects using the Y-Maze Paradigm and novel object discrimination (NOD) task, scopolamine (1 mg/kg, i.p.) was given to the different groups, 30 min after the respective treatments, to induce memory impairment (amnesia) in mice. All of the tests were performed between 8:00 a.m. and 6:00 p.m. to avoid sham results in the performance of the animals.
Behavioral tasks on the Y-Maze Paradigm and “NOD” tasks were conducted in the 5th week of study to determine learning and memory functions. The apparatus arena was cleaned with 70% ethanol during the inter-trial interval to prevent a confounding error due to the influence of odor [20, 21].
The Y-Maze task is a non-invasive and reliable behavioral test that was used for memory assessment of spontaneous alternation for F1–F5 based on previously reported protocols. A single session of Y-Maze was used to record the spontaneous alternation behavior of the animals to determine exploratory behavior and instant memory functioning. The apparatus was made of three arms in a “Y” shape (35 cm × 8 cm × 15 cm) with an equilateral triangular central area. In brief, each of the mice, previously naive to the maze, was placed at the terminal end of one arm. The animals were allowed to move and explore freely for 8 min through the maze. The number of arm entries was noted. One arm entry was considered when the hind paws of the animal were completely placed inside the arm, and the series of arm entries were documented. The spontaneous alternation in percent was calculated.

[2] = tested on: brains of scopolamine-induced amnesic mice; experiment: Antioxidant enzyme activities and oxidative stress markers in brain homogenate; type: in vivo, Balb/C mice; details: n = 8
Description: as §1
The brain was extracted, and a homogenate (10% w/v) in 0.1 M of phosphate buffer (pH 7.4) was prepared by centrifugation for the assessment of brain oxidative status and estimating brain acetylcholinesterase activity. Catalase (CAT), superoxide dismutase (SOD), glutathione (GSH) and level of lipid peroxidation (malondialdehyde, MDA) were quantified as oxidative stress markers.

[3] = biological target: T1, AChE (electric eel type-VI-S) (Electrophorus electricus, UniProt O42275); experiment: biochemical; details: 25 °C, triplicate
T1 construct: purchased Sigma-Aldrich (Taufkirchen, Germany)
T1 sequence (O42275 24-633): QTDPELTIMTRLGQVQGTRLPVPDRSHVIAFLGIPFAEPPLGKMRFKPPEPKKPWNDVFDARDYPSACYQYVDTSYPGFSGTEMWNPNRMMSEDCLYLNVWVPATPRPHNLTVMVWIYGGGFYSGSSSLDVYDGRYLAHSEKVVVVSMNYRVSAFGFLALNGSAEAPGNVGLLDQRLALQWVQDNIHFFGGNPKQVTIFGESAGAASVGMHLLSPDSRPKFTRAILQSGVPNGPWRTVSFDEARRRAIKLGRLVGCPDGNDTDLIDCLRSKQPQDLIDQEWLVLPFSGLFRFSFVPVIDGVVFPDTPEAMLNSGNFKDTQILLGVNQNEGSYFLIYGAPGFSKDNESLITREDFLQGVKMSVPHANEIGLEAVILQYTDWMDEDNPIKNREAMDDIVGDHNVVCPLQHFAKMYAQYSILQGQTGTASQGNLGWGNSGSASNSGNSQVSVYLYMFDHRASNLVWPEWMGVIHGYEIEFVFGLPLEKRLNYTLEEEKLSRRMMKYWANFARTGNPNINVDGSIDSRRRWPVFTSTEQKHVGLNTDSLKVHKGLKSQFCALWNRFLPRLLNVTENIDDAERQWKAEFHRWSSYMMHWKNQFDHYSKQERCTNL
Description: (§2) Synthetic flavonoids F1–F5 previously synthesized by our group were used in the study.
(§3) For the determination of acetylcholinesterase inhibitory potentials, AChE and BuChE were used. […] To the tube were added DTNB (100 µL) and buffer (2.4 mL). The tube was incubated at 25 °C for 5 min as pre-incubation. The reaction was started by adding ATChI (40 µL), and the mixture was incubated at 25 °C for 20 min. The absorbance at 412 nm was measured spectrophotometrically in triplicate. […] The data were recorded in triplicate, and IC50 was calculated.

[4] = biological target: T2, BuChE (equine serum lyophilized) (Equus caballus, UniProt P81908); experiment: biochemical; details: triplicate; read-out: BChE IC50 (converted)
T2 construct: purchased Sigma-Aldrich (Taufkirchen, Germany); host or cells: equine serum
T2 sequence (P81908 whole entry): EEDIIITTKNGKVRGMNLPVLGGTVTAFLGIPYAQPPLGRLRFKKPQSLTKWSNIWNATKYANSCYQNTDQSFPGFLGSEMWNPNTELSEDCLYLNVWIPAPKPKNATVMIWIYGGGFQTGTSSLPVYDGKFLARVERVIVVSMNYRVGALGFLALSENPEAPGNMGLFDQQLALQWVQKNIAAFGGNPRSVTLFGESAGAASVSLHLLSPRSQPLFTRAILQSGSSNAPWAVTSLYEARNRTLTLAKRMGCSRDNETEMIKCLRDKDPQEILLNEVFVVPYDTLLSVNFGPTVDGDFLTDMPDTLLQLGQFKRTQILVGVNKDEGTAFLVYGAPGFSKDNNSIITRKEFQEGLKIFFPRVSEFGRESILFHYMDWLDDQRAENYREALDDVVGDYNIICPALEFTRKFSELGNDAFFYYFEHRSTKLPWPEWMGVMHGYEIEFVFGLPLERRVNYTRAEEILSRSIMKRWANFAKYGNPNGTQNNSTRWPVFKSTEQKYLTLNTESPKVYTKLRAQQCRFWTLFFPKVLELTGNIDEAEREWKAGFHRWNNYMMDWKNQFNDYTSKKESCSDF
Description: as §2, §3

| Structure (SMILES) | Spontaneous Alternation Performance ([1]; 7.5 mg/kg b.w. p.o. 4 weeks) | Spontaneous Alternation Performance ([1]; 15 mg/kg b.w. p.o. 4 weeks) | CAT ([2]; 7.5 mg/kg b.w.) | GSH ([2]; 7.5 mg/kg b.w.) | MDA ([2]; 7.5 mg/kg b.w.) | SOD ([2]; 7.5 mg/kg b.w.) | CAT ([2]; 15 mg/kg b.w.) | GSH ([2]; 15 mg/kg b.w.) | MDA ([2]; 15 mg/kg b.w.) | SOD ([2]; 15 mg/kg b.w.) | IC50 [3] | IC50 [4] |
| --- | --- | --- | --- | --- | --- | --- | --- | --- | --- | --- | --- | --- |
| O=c1cc(-c2cccc(Cl)c2Cl)oc2ccccc12 [Compound F3] | 59.61 ± 1.61 % | 65.78 ± 1.57 % | 22.97 ± 1.71 U/mg of Protein | 35.61 ± 1.55 μg/mg of Protein | 16.37 ± 1.13 nmol/mg Protein | 9.19 ± 1.21 U/mg of Protein | 24.50 ± 1.41 U/mg of Protein | 36.98 ± 1.66 μg/mg of Protein | 15.94 ± 1.65 nmol/mg Protein | 9.41 ± 1.29 U/mg of Protein | 434 µM | 505 µM |
| O=c1cc(-c2ccc(Cl)c(Cl)c2)oc2ccccc12 [Compound F4] | 57.92 ± 1.41 % | 66.70 ± 1.63 % | 22.21 ± 1.40 U/mg of Protein | 36.21 ± 1.35 μg/mg of Protein | 15.74 ± 1.21 nmol/mg Protein | 9.30 ± 1.41 U/mg of Protein | 23.39 ± 1.32 U/mg of Protein | 38.30 ± 1.40 μg/mg of Protein | 15.01 ± 1.37 nmol/mg Protein | 9.71 ± 1.56 U/mg of Protein | 386 µM | 418 µM |
